The numbers were not newly measured in patent publication US8603452B1, “Method of preventing biofouling using an anti-fouling bio-hydrogel composition” (University of South Florida, priority 2007, dated 2013), which cites them from elsewhere.

One data set deals with biofouling. The conditions noted are these: hydrogel coatings containing BAC, marine environment.

Where two headings read alike, the source gives them in different places.

Regarding benzalkonium chloride [BAC], the diffusion coefficient (loss of BAC from hydrogel film, period from 12 to 50 hours, 13° C., freshwater) is listed as 7.3×10^−8 cm^2 s^−1 and the diffusion coefficient (rate of loss of the residual BAC from hydrogel film, 15° C.) is reported as 5.7×10^−10 cm^2 s^−1. The “prevention of the development of biofouling (duration)” value in the data set with biofouling is given as “up to 12 weeks”.
